From patent publication US20260355318A1, “MOLECULAR MACHINES FOR TREATMENT OF CANCER, FUNGAL INFECTIONS, OR BACTERIAL INFECTIONS” (priority 2022, published 2026)
Where two headings read alike, the source gives them in different places.

Experiments:
[1] = tested on: E. coli; assay: MIC, E. coli; assay type: cell-based, Escherichia coli BW25113; conditions: Escherichia coli, read-out: MIC of MM
[2] = tested on: P. aeruginosa; assay: MIC, P. aeruginosa; assay type: cell-based, Pseudomonas aeruginosa; conditions: Pseudomonas aeruginosa, read-out: MIC of MM
Description: (§1) The appropriate volume of an MM stock at 8 mM necessary to achieve a concentration ranging from 0.3125 to 40 μM was pipetted into a 2 mL microcentrifuge tube to which 1 mL of cell suspension prepared as previously described was added. Corresponding negative controls (DMSO only) were prepared in the same way. The mixture was gently mixed by pipetting and incubated in the dark at 30 or 37 ° C, depending on the strain, for 30 min with agitation (220 rpm). Afterward, MM- or DMSO-treated cells were dispensed in one well of a 24-well plate positioned in the center of the light beam (405 nm LED Light, Prizmatix, UHP—F-5-405) placed at the appropriate distance necessary to achieve the desired light intensity of 304 mW cm-2, 146 mW cm2 or 87 mW cm2, as measured with a handheld digital power meter console coupled to an S415C thermal power sensor head (Thorlabs, Newton, MA, USA). The temperature during irradiation was monitored using a thermocouple probe (Model SC-TT-K-30-36-PP; Omega Engineering, Inc., Stanford, CT, USA). Samples were agitated during irradiation. Dark controls were prepared as previously described except that no irradiation was provided.
(§2) For MIC determination, samples treated with a range of concentrations of the different MM, as described above and were irradiated one at a time for 5 min at 146 mW cm^−2 (43.8 J cm^−2), after which irradiated aliquots were collected and inoculated into 1 mL MHB in a 2 mL microcentrifuge tube. Samples were incubated overnight at 30 or 37 ° C, depending on the strain, without agitation. Corresponding non-irradiated samples and negative controls (without bacteria) were also included. The following day, cultures were inspected for growth and the MIC was identified. The experimental procedure used to determine the MIC of visible light-activated MMs is schematically depicted in FIG. 26.

[3] = tested on: persister cells of S. aureus; assay: Persister eradication, S. aureus; assay type: cell-based, Staphylococcus aureus; conditions: 1×MIC, 405 nm
Description: (§3) Persister cells of E. coli were prepared by adding ampicillin (100 μg mL^−1) to exponential-phase cells (OD600 of ≈0.8) followed by continuous agitation for another 3 b, as previously described (Keren et al., 2004). In the case of S. aureus, almost all stationary-phase are considered to be persistent (Keren et al., 2004). S. aureus cells were grown at 37 ° C and 220 rpm in LB broth to an OD600 of 0.3. Cells were then diluted 1:1000 in 25 mL LB and grown for 16 h at 37 ° C and 220 rpm in 250 mL flasks. […] At specified time points (0, 1, 2, 3, 4 and 5, 10 and 15 min), 50-μL aliquots were removed, serially diluted and spot-plated onto LB agar plates to determine colony-forming units per mL (CFU mL^−1). Only dilutions that yielded 10-100 colonies were counted. Results were expressed as log (N/NO) whereby N is the CFU mL^−1 at each irradiation time point and NO is the initial CFU mL^−1 of the corresponding sample. […].

[4] = tested on: E. coli; assay: Time-kill / light-dose experiments, E. coli; assay type: cell-based, Escherichia coli; conditions: for time to reduce cell number to limit of detection: E. coli, 2×MIC, 146 mW cm^−2 405 nm
Description: (§4) Serial dilutions of irradiated cell suspensions were prepared in PBS. A volume of 10 AL of the appropriate serial dilutions was spot-plated onto LB agar plates. Following overnight incubation at 30 or 37 ° C, depending on the strain, bacterial viability was assessed as colony forming units (CFU) per mL. Results were expressed as log (N/NO) whereby N is the CFU mL^−1 at each irradiation time point and NO is the initial CFU mL^−1 of the corresponding sample. Only dilutions that yielded 10-100 colonies were counted.

[5] = tested on: S. aureus; assay: MIC, S. aureus; assay type: cell-based, Staphylococcus aureus; conditions: Staphylococcus aureus, read-out: MIC of MM
Description: as §1, §2

[6] = tested on: A. baumannii; assay: MIC, A. baumannii; assay type: cell-based, Acinetobacter baumannii; conditions: Acinetobacter baumannii, read-out: MIC of MM
Description: as §1, §2

[7] = tested on: persister cells of P. aeruginosa; assay: Persister eradication, P. aeruginosa; assay type: cell-based, Pseudomonas aeruginosa; conditions: 1×MIC, 405 nm
[8] = tested on: S. aureus; assay: Time-kill / light-dose experiments, S. aureus; assay type: cell-based, Staphylococcus aureus; conditions: 2×MIC, 146 mW cm^−2 405 nm
Description: as §4

[9] = tested on: persister cells of E. coli; assay: Persister eradication, E. coli; assay type: cell-based, Escherichia coli; conditions: 1×MIC, 405 nm
Description: as §3

[10] = tested on: P. aeruginosa; assay: Time-kill / light-dose experiments, P. aeruginosa; assay type: cell-based, Pseudomonas aeruginosa; conditions: 2×MIC, 146 mW cm^−2 405 nm
Description: as §4

[11] = tested on: A. baumannii; assay: Time-kill / light-dose experiments, A. baumannii; assay type: cell-based, Acinetobacter baumannii; conditions: 2×MIC, 146 mW cm^−2 405 nm
Description: as §4

[12] = tested on: S. cerevisiae; assay: MIC, MMs and antifungals, S. cerevisiae; assay type: cell-based, Saccharomyces cerevisiae (ATCC 13007); conditions: Saccharomyces cerevisiae, broth microdilution, read-out: MIC of antifungal agent
Description: (§5) Cell suspensions for susceptibility testing (MMs and conventional antifungals) were prepared per the Clinical & Laboratory Standards Institute (CLSI) guidelines (CLSI, 2017; CLSI, 2008). Before testing, yeasts (C. albicans and S. cerevisiae) were sub-cultured in Sabouraud Dextrose Agar-Emmons Modification (SDAE) plates and grown for 24 h at 30 °C. Five independent colonies from 24-h-old plates were collected and diluted to ~10^4 colony forming units (CFU) per mL in sterile saline (CLSI, 2017). Molds (A. fumigatus and the dermatophytes T. rubrum and M. gypseum) were sub-cultured on SDAE medium and incubated for 7 days at 28 °C. Conidia were recovered by covering the plates with sterile distilled water and scraping the colonies. The suspensions were filtered (8-μm pore size) and diluted in saline to ~10^4 CFU mL^−1 (Santos and Hamdan, 2005).
(§6) After a 30-min incubation in the dark, cell suspensions were transferred to small, sterilized glass beakers, which were then placed in a water bath. Each sample was irradiated with 405-nm light at 292 mW cm^−2 for 5 min, corresponding to a light dose of 87.6 J cm^−2, determined using an S415C thermal power sensor (Thorlabs, Newton, MA, USA). During irradiation, the cell suspensions were agitated with a small metal stirrer. A thermocouple probe (model SC-TT-K-30-36-PP; Omega Engineering, Inc., Stanford, CT, USA) was used to monitor the temperature during irradiation. Irradiated cell suspensions were inoculated in 3-(N-morpholino) propanesulfonic acid (MOPS)-buffered Roswell Park Memorial Institute Medium (RPMI) 1640 (pH 7.0). Tubes were incubated at 30 ° C for 48 h (yeasts) and 28 ° C for 7 days (molds). The antifungal or MM concentration resulting in no visible growth was defined as the minimum inhibitory concentration (MIC) (CLSI, 2017; CLSI, 2008). Similarly prepared cell suspensions were used to determine the MIC of conventional antifungals.

[13] = tested on: C. albicans; assay: MIC, visible-light-activated MMs and conventional antifungals, C. albicans; assay type: cell-based, Candida albicans (ATCC 18804); conditions: Candida albicans, read-out: MIC of antifungal agent
Description: C. albicans cell suspensions were incubated with increasing concentrations of MMs and irradiated with 405-nm light at 292 mW cm^−2 for 5 min (87.6 J cm^−2). The minimum inhibitory concentration (MIC) was defined as the MM concentration resulting in no visible fungal growth after irradiation with 87.6 J cm^−2 of 405-nm light.
as §5, §6

[14] = tested on: persister cells of A. baumannii; assay: Persister eradication, A. baumannii; assay type: cell-based, Acinetobacter baumannii; conditions: 1×MIC, 405 nm
[15] = tested on: E. coli; assay: Effect of ROS scavengers on MM 1-induced killing of E. coli; assay type: cell-based, Escherichia coli; conditions: MM 1 2×MIC, NAC 1 mM, TU 100 mM
Excerpt: All results are shown as the mean of at least 3 biological replicas±standard error of the mean.

[16] = tested on: A. fumigatus; assay: MIC, MMs and antifungals, A. fumigatus; assay type: cell-based, Aspergillus fumigatus (ATCC 1022); conditions: Aspergillus fumigatus, read-out: MIC of antifungal agent
Description: as §5
After a 30-min incubation in the dark, cell suspensions were transferred to small, sterilized glass beakers, which were then placed in a water bath. Each sample was irradiated with 405-nm light at 292 mW cm^−2 for 5 min, corresponding to a light dose of 87.6 J cm^−2, determined using an S415C thermal power sensor (Thorlabs, Newton, MA, USA). During irradiation, the cell suspensions were agitated with a small metal stirrer. […]

[17] = tested on: biofilms of P. aeruginosa and S. aureus; assay: Biofilm total bacterial cell number (acridine orange); assay type: cell-based, Pseudomonas aeruginosa, Staphylococcus aureus; conditions: 2×MIC, vs untreated controls
Description: (§7) This combination of methods is effective at evaluating the antibiofilm potential of chemicals (Stiefel et al., 2016). P. aeruginosa and S. aureus were grown overnight in tryptic soy broth (TSB) medium. The overnight cultures were diluted in 1:100 in fresh media and 100 μL aliquots were distributed in a 96-well plate. After 24 h of static growth at 37 ° C, planktonic cells were removed by inverting the plate onto a stack of paper towels, and the biofilm was washed three times with PBS. After washing, MM 1, MM 5, or MM 6 were added at 2×MIC to the biofilm and incubated statically in the dark for 60 min. The biofilm was then irradiated for 15, 30, or 45 min at 146 mW cm2. For the determination of the total bacterial number, acridine orange solution (2% in H2O) diluted 1:100 in Walpole's buffer (27.2 g L-1 sodium acetate trihydrate, adjusted to pH 4 with glacial acetic acid) was added to the wells.

[18] = tested on: biofilms of P. aeruginosa and S. aureus; assay: Biofilm metabolically active cells (ATP); assay type: cell-based, Pseudomonas aeruginosa, Staphylococcus aureus; conditions: 2×MIC, antibiotics 45 min, MMs 15 min + light, vs untreated
Description: as §7
For quantification of viable cells in biofilms, following the addition of 100 μL […] of TSB to each well, bacteria were detached from the biofilm by thorough mixing, after which […] of BacTiter-Glo™ reagent, prepared according to the manufacturer's instructions, was added to each well.

[19] = E. coli BW25113, 405 nm light 43.8 J cm^−2
[20] = E. coli, Table 9, 405 nm light 43.8 J cm^−2

SMILES | MIC [1, 20] | MIC [2] | time to reduce persister cells to limit of detection [3] | MIC [5] | MIC [6] | time to complete elimination [8] | time to reduce persister cells to limit of detection [9] | other results
C[C@@H]1Cc2cc(NCCN(C)C)c3ccccc3c2C1=C1c2ccccc2Sc2ccccc21 (stereo in doubt) [MM 2, N^1,N^1-Dimethyl-N^2-(2-methyl-1-(9H-thioxanthen-9-ylidene)-2,3-dihydro-1H-cyclopenta[a]naphthalen-5-yl) ethane-1,2-diamine] | 32 µM | 5 µM | 3 min | 1.25 µM | 20 µM | 4 min | 5 min | MIC [1, 19]: 32 µM; time to reduce cell number to limit of detection [4]: 10 min; time to reduce persister cells to limit of detection [7]: 15 min
Br.COc1cc2c(c3ccccc13)/C(=C1\c3ccccc3Sc3ccc(C#CCCCC[P+](c4ccccc4)(c4ccccc4)c4ccccc4)cc31)[C@H](C)C2 (stereo in doubt) [MM 4, (6-(9-(5-methoxy-2-methyl-2,3-dihydro-1H-cyclopenta[a]naphthalen-1-ylidene)-9H-thioxanthen-2-yl)hex-5-yn-1-yl)triphenylphosphonium bromide] | 1 µM | 0.625 µM | 3 min | 0.078 µM | 2.5 µM | 2 min | 5 min | MIC [1, 19]: 0.625 µM; time to reduce cell number to limit of detection [10]: 3 min; time to reduce cell number to limit of detection [4]: 4 min; bacterial toxicity in the absence of light ([4]; FIG. 31, different bacterial strains, no light): Some toxicity of the MM itself (in the absence of light); time to reduce cell number to limit of detection [11]: 3 min
CC[C@H](C)C[C@H](C)CCCCCCCCC(=O)N[C@H]1C[C@@H](O)[C@@H](NCCN)NC(=O)[C@@H]2[C@@H](O)CCN2C(=O)[C@H]([C@H](O)CCN)NC(=O)[C@H]([C@H](O)[C@@H](O)c2ccc(O)cc2)NC(=O)[C@@H]2C[C@@H](O)CN2C(=O)[C@H]([C@@H](C)O)NC1=O [Caspofungin (CAS), Caspofungin] | – | – | – | – | – | – | – | MIC [12]: 0.5 µg/mL; MIC [13]: 0.25 µg/mL
C[C@@H]1Cc2cc(N(C)CCN(C)C)c3ccccc3c2C1=C1c2ccccc2Sc2ccccc21 [MM 3, N^1,N^1,N^2-trimethyl-N^2-(2-methyl-1-(9H-thioxanthen-9-ylidene) ~2,3-dihydro-1H-cyclopenta[a]naphthalen-5-yl) ethane-1,2-diamine] | 16 µM | 5 µM | 10 min | 1.25 µM | 20 µM | 4 min | 10 min | time to reduce cell number to limit of detection [10]: 10 min; time to reduce persister cells to limit of detection [14]: 15 min; time to reduce cell number to limit of detection [11]: 10 min
CC(=O)N[C@@H](CS)C(=O)O [N-acetyl-L-cysteine] | – | – | – | – | – | – | – | protection against MM-induced killing by ROS scavenger [15]: does not protect against MM-induced killing in E. coli
C[C@@H](c1ncncc1F)[C@](O)(Cn1cncn1)c1ccc(F)cc1F [Voriconazole (VRC), Voriconazole] | – | – | – | – | – | – | – | MIC [12]: 0.125 µg/mL; MIC [13]: 0.03 µg/mL; MIC [16]: 0.5 µg/mL
CO[C@H]1/C=C/O[C@@]2(C)Oc3c(C)c(O)c4c(O)c(c(/C=N/N5CCN(C)CC5)c(O)c4c3C2=O)NC(=O)/C(C)=C\C=C\[C@H](C)[C@H](O)[C@@H](C)[C@@H](O)[C@@H](C)[C@H](OC(C)=O)[C@@H]1C [rifampin] | – | – | – | – | – | – | – | reduction in total bacterial cell number in biofilm [17]: ≤ 64%; reduction in metabolically active cells in biofilm [18]: 18%
NC(N)=S [thiourea] | – | – | – | – | – | – | – | protection against MM-induced killing by ROS scavenger [15]: does not protect against MM-induced killing in E. coli
